Consider 2 compounds from PMC8121435, “Cork-in-bottle mechanism of inhibitor binding to mammalian complex I” (Science Advances, 2021).

One experiment concerns the target T1, mouse complex I (Mus musculus, UniProt P03888+Q91WD5+Q9DC70).
T1 construct: from tissue; host or cells: mouse (C57BL/6) heart mitochondria
Kind of experiment: NADH:decylubiquinone oxidoreduction by purified mouse complex I. Type of experiment: biochemical. The procedure: (§1) All catalytic activity assays were conducted at 32°C in 96-well plates using a Molecular Devices Spectramax 384 plus plate reader. Catalysis was initiated by addition of 200 μM NADH and monitored at 340 and 380 nm (ε340–380 = 4.81 mM^−1 cm^−1). Linear rates were measured for all assays, inhibitors were added from dimethyl sulfoxide stock solutions as required, and inhibitor-insensitive rates (using either 1 μM piericidin A or 1.4 μM IACS-2858) were subtracted from each measured rate. Membrane samples were prepared as described previously ([17], [20], [59], [60]), diluted to 20 μg ml^−1 in 10 mM tris-SO4 (pH 7.5) and 250 mM sucrose, and supplemented with 3 μM horse heart cytochrome c (except for P. denitrificans, for which the activity is unaffected by the addition). Mouse, bovine, and yeast (Y. lipolytica) complex I were purified as described previously ([17], [20], [59]); diluted to 0.5 nM in 20 mM tris-HCl (pH 7.5), 0.15% asolectin, and 0.15% CHAPS; and assayed using either 200 μM dQ or 200 μM ubiquinone-1 (Sigma-Aldrich). Complex I was purified from P. denitrificans strain Pd1222 ([61]) and provided by O. D. Jarman (MRC Mitochondrial Biology Unit, University of Cambridge); it was assayed likewise but in 10 mM MES-HCl (pH 6.5), 25 mM NaCl, and 2 mM CaCl2. Bovine SMPs were prepared as described previously ([61]) and diluted to 20 μg ml^−1 in 10 mM tris-SO4 (pH 7.5) and 250 mM sucrose for FET and RET assays. The RET assay was initiated using 1 mM NAD^+, 1 mM ATP, 10 mM succinate, 1 mM cyanide, and 2 mM MgSO4, in the absence of NADH. AOX from Trypanosoma brucei brucei was prepared as described previously ([23]). Complex I proteoliposomes were assayed using 10 mM Mops-KOH (pH 7.5), 50 mM KCl, and AOX (10 μg ml^−1).

In a further experiment the target is T2, bovine complex I (Bos taurus, UniProt P03887+P17694+P42026).
T2 construct: Complex I from bovine heart were prepared; from tissue; host or cells: bovine heart mitochondria
Kind of experiment: NADH:decylubiquinone oxidoreduction by purified bovine complex I. Type of experiment: biochemical. As to conditions: purified B. taurus complex I, dQ; ± SE. The method, then: as §1, with “Bovine SMPs were prepared as described previously ([61]) and diluted to 20 μg ml^−1 in 10 mM tris-SO4 (pH 7.5) and 250 mM sucrose for FET and RET assays. The RET assay was initiated using 1 mM NAD^+, 1 mM ATP, 10 mM succinate, 1 mM cyanide, and 2 mM MgSO4, in the absence of NADH. AOX from Trypanosoma brucei brucei was prepared as described previously ([23]). Complex I proteoliposomes were assayed using 10 mM Mops-KOH (pH 7.5), 50 mM KCl, and AOX (10 μg ml^−1).” left out

Experiment [1] relates to human cell line models and representative cell lines from mammalian species. Also noted: method as in PMID 29892070. As to conditions: mouse, monkey, dog and rat cell lines; cited from earlier work.
Experiment [2] concerns the target T3, complex I in bovine SMPs (Bos taurus, UniProt P03887+P17694+P42026).
T3 construct: Complex I from bovine heart were prepared; from tissue; host or cells: bovine heart mitochondria
Nature of the experiment: Forward electron transport (NADH oxidation) in bovine heart submitochondrial particles. The settings on record: NADH oxidation rate, ± SE. Type of experiment: biochemical. The procedure: as §1, with “Bovine SMPs were prepared as described previously ([61]) and diluted to 20 μg ml^−1 in 10 mM tris-SO4 (pH 7.5) and 250 mM sucrose for FET and RET assays. The RET assay was initiated using 1 mM NAD^+, 1 mM ATP, 10 mM succinate, 1 mM cyanide, and 2 mM MgSO4, in the absence of NADH. AOX from Trypanosoma brucei brucei was prepared as described previously ([23]). Complex I proteoliposomes were assayed using 10 mM Mops-KOH (pH 7.5), 50 mM KCl, and AOX (10 μg ml^−1).” left out

The target of experiment [3] is T4, P. denitrificans complex I (Paracoccus denitrificans, UniProt P29916+P29918+P29920).
T4 construct: Complex I was purified from P. denitrificans strain Pd1222; endogenous in cells; host or cells: P. denitrificans strain Pd1222
Nature of the experiment: NADH:decylubiquinone oxidoreduction by purified P. denitrificans complex I. Type of experiment: biochemical. As to conditions: dQ, pH 6.5. The procedure: as §1, with “Bovine SMPs were prepared as described previously ([61]) and diluted to 20 μg ml^−1 in 10 mM tris-SO4 (pH 7.5) and 250 mM sucrose for FET and RET assays. The RET assay was initiated using 1 mM NAD^+, 1 mM ATP, 10 mM succinate, 1 mM cyanide, and 2 mM MgSO4, in the absence of NADH. AOX from Trypanosoma brucei brucei was prepared as described previously ([23]). Complex I proteoliposomes were assayed using 10 mM Mops-KOH (pH 7.5), 50 mM KCl, and AOX (10 μg ml^−1).” left out

The next experiment concerns H292 cells. Details: method as in PMID 29892070. As to conditions: Leu55 ND1 mutation to Phe in H292 cells; cited from earlier work.
For experiment [4], the target named is T5, complex I in bacterial membranes (Paracoccus denitrificans, UniProt P29916+P29918+P29920).
T5 construct: Complex I was purified from P. denitrificans strain Pd1222; endogenous in cells; host or cells: P. denitrificans strain Pd1222
Kind of experiment: NADH oxidation in P. denitrificans bacterial membranes. Type of experiment: biochemical. As to conditions: P. denitrificans membranes 20 μg ml−1. The procedure: as §1, with “Bovine SMPs were prepared as described previously ([61]) and diluted to 20 μg ml^−1 in 10 mM tris-SO4 (pH 7.5) and 250 mM sucrose for FET and RET assays. The RET assay was initiated using 1 mM NAD^+, 1 mM ATP, 10 mM succinate, 1 mM cyanide, and 2 mM MgSO4, in the absence of NADH. AOX from Trypanosoma brucei brucei was prepared as described previously ([23]). Complex I proteoliposomes were assayed using 10 mM Mops-KOH (pH 7.5), 50 mM KCl, and AOX (10 μg ml^−1).” left out

Experiment [5] has as its target T6, complex I in mitochondrial membranes (Mus musculus, UniProt P03888+Q91WD5+Q9DC70).
T6 construct: from tissue; host or cells: mouse (C57BL/6) heart mitochondria
Kind of experiment: NADH oxidation in mouse mitochondrial membranes. Type of experiment: biochemical. The settings on record: M. musculus membranes 20 μg ml−1; ± SE. The method, then: as §1, with “Bovine SMPs were prepared as described previously ([61]) and diluted to 20 μg ml^−1 in 10 mM tris-SO4 (pH 7.5) and 250 mM sucrose for FET and RET assays. The RET assay was initiated using 1 mM NAD^+, 1 mM ATP, 10 mM succinate, 1 mM cyanide, and 2 mM MgSO4, in the absence of NADH. AOX from Trypanosoma brucei brucei was prepared as described previously ([23]). Complex I proteoliposomes were assayed using 10 mM Mops-KOH (pH 7.5), 50 mM KCl, and AOX (10 μg ml^−1).” left out

In experiment [6] the target is T7, complex I in mitochondrial membranes (Bos taurus, UniProt P03887+P17694+P42026).
T7 construct: Complex I from bovine heart were prepared; from tissue; host or cells: bovine heart mitochondria
Kind of experiment: NADH oxidation in bovine mitochondrial membranes. Type of experiment: biochemical. As to conditions: B. taurus membranes 20 μg ml−1; ± SE. The procedure: as §1, with “Bovine SMPs were prepared as described previously ([61]) and diluted to 20 μg ml^−1 in 10 mM tris-SO4 (pH 7.5) and 250 mM sucrose for FET and RET assays. The RET assay was initiated using 1 mM NAD^+, 1 mM ATP, 10 mM succinate, 1 mM cyanide, and 2 mM MgSO4, in the absence of NADH. AOX from Trypanosoma brucei brucei was prepared as described previously ([23]). Complex I proteoliposomes were assayed using 10 mM Mops-KOH (pH 7.5), 50 mM KCl, and AOX (10 μg ml^−1).” left out

Experiment [7] concerns the target T8, yeast (Y. lipolytica) complex I (Yarrowia lipolytica, UniProt Q9B6E8+Q9UUT7+Q9UUU1).
T8 sequence (Q9B6E8 1-341): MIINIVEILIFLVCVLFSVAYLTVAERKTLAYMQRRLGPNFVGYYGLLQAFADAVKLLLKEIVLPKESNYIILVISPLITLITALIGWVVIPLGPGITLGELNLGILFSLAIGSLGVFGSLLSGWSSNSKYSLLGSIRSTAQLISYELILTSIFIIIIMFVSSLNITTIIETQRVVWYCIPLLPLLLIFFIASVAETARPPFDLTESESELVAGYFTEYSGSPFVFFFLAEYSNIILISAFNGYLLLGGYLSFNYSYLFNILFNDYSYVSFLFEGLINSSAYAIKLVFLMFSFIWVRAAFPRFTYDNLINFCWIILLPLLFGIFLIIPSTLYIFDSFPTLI
T8 sequence (Q9UUU1 22-466): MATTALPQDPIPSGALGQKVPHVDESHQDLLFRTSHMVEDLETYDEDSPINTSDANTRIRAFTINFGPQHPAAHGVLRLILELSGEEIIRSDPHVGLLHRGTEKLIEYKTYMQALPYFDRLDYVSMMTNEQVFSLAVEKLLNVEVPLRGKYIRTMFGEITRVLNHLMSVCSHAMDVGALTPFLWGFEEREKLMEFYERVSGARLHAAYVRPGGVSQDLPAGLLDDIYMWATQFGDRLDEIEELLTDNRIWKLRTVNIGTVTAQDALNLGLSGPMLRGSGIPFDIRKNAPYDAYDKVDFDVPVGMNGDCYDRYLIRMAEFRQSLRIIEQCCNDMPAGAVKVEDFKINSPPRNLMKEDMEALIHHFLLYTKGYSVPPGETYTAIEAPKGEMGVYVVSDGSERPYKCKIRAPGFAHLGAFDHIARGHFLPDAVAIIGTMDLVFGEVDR
T8 sequence (Q9UUT7 28-210): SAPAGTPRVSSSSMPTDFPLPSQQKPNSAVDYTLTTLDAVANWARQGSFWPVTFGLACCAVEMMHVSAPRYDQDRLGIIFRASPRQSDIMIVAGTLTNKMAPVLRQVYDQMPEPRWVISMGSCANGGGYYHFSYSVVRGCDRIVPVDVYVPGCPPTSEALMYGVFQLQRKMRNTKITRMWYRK
Kind of experiment: NADH:decylubiquinone oxidoreduction by purified Y. lipolytica complex I. Type of experiment: biochemical. The procedure:
as §1, with “Bovine SMPs were prepared as described previously ([61]) and diluted to 20 μg ml^−1 in 10 mM tris-SO4 (pH 7.5) and 250 mM sucrose for FET and RET assays. The RET assay was initiated using 1 mM NAD^+, 1 mM ATP, 10 mM succinate, 1 mM cyanide, and 2 mM MgSO4, in the absence of NADH. AOX from Trypanosoma brucei brucei was prepared as described previously ([23]). Complex I proteoliposomes were assayed using 10 mM Mops-KOH (pH 7.5), 50 mM KCl, and AOX (10 μg ml^−1).” left out

The target of experiment [8] is T3, complex I in bovine SMPs. Nature of the experiment: Reverse electron transport (succinate oxidation-driven NAD+ reduction) in bovine heart submitochondrial particles. Type of experiment: biochemical. The method, then: as §1
The target of experiment [9] is T9, complex I in mitochondrial membranes (Yarrowia lipolytica, UniProt Q9B6E8+Q9UUT7+Q9UUU1).
T9 sequence (Q9B6E8 1-341): T8 sequence (Q9B6E8 1-341)
T9 sequence (Q9UUU1 22-466): T8 sequence (Q9UUU1 22-466)
T9 sequence (Q9UUT7 28-210): T8 sequence (Q9UUT7 28-210)
Nature of the experiment: NADH oxidation in Y. lipolytica mitochondrial membranes. Type of experiment: biochemical. The method, then: as §1, with “Bovine SMPs were prepared as described previously ([61]) and diluted to 20 μg ml^−1 in 10 mM tris-SO4 (pH 7.5) and 250 mM sucrose for FET and RET assays. The RET assay was initiated using 1 mM NAD^+, 1 mM ATP, 10 mM succinate, 1 mM cyanide, and 2 mM MgSO4, in the absence of NADH. AOX from Trypanosoma brucei brucei was prepared as described previously ([23]). Complex I proteoliposomes were assayed using 10 mM Mops-KOH (pH 7.5), 50 mM KCl, and AOX (10 μg ml^−1).” left out

Another experiment has as its system human DHODH. Also noted: method as in PMID 15044733, PMID 9313772. As to conditions: His-to-Ala mutation of the π-stacking partner; cited from earlier work.

For orientation: IC50 means the point on the concentration scale where inhibition reaches its midpoint. Low readings indicate greater potency in that assay, high ones weaker potency in that assay. As for `Cc1nc(-c2nc(-c3ccc(OC(F)(F)F)cc3)no2)nn1Cc1cccc(N2CCC(S(C)(=O)=O)CC2)c1` [IACS-010759], the “higher IC50 value than IACS-2858” value at mouse complex I is listed as 17 fold. Further, the IC50 was 0.0479 µM at mouse complex I (purified mouse complex I ~0.5 nM, 200 μM dQ, 200 μM NADH, 32°C, Hill slope constrained to −1, ± SE); 0.739 ± 0.065 µM at bovine complex I; 0.325 ± 0.025 µM against complex I in bovine SMPs [2]; approximately 22000 µM in [3]; approximately 1600 µM in experiment [4]; 0.0069 ± 0.0004 µM in experiment [5]. Besides, the IC50 in experiment [6] is 0.113 ± 0.004 µM; in experiment [7], 6.3 ± 0.8 µM; at complex I in bovine SMPs [8] (bovine SMPs, succinate oxidation-driven NAD+ reduction rate, ± SE), 0.0123 ± 0.0006 µM; in experiment [9], approximately 170 µM. The “variation in IC50 across cell lines” value in experiment [1] is recorded as “up to 230 fold”. Moreover, the loss of sensitivity entry in the experiment with H292 cells is on record as “up to 70 fold”. In addition, at complex I in bovine SMPs [8] (bovine heart SMPs, RET versus FET), the “inhibition of RET favoured over FET” value is reported as “more than 25 fold”.

Consider `Cc1c(-c2ccc(-c3ccccc3F)cc2)nc2ccc(F)cc2c1C(=O)O` [brequinar], for which the reduction of sensitivity entry with human DHODH was “more than 100 fold”.
